Measured values taken from ChEMBL document CHEMBL1154712, “Synthesis and cytotoxic activity of psorospermin and acronycine analogues in the 3-propyloxy-acridin-9(10H)-one and -benzo[b]acridin-125H-one series” (Eur J Med Chem, 2010).

What was measured:
L1210 = assay: Cytotoxicity against mouse L1210 cells after 48 hrs by microculture tetrazolium assay; assay type: functional, cell-based; conditions: L1210, 48 h
[1] = Cytotoxicity against human KB3-1 cells after 96 hrs by microculture tetrazolium assay; assay type: functional, cell-based; conditions: KB 3-1, 96 h

Row | SMILES | IC50 (L1210) [µM] | IC50 [1] [µM]
1 | COc1cc(OCC2COC(=O)O2)cc2c1c(=O)c1cc3ccccc3cc1n2C (racemic) | 18.8 | 23.2
2 | COc1cc(OCC(COC(C)=O)OC(C)=O)cc2c1c(=O)c1cc3ccccc3cc1n2C (racemic) | 3.1 | 7.9
3 | COc1cc2c(c3c1c(=O)c1cc4ccccc4cc1n3C)C[C@H]([C@@]1(C)CO1)O2 (racemic) | 0.04 | 0.08
4 | COc1cc2c(c3c1c(=O)c1cc4ccccc4cc1n3C)[C@@H](OC(C)=O)[C@@H](OC(C)=O)C(C)(C)O2 (relative stereo) |  | 0.09
5 | COc1cc2c(c3c1c(=O)c1ccccc1n3C)C[C@H]([C@@]1(C)CO1)O2 (racemic) |  | 0.06
6 | C=CCOc1cc(OC)c2c(=O)c3ccccc3n(C)c2c1 | 13.4 | 10.4
7 | COc1cc(OCC(O)COC(C)=O)cc2c1c(=O)c1ccccc1n2C (racemic) | 32.4 | 22.5
8 | COc1cc(OCC2CO2)cc2c1c(=O)c1cc3ccccc3cc1n2C (racemic) | 0.03 | 0.2
9 | COc1cc(OCC(O)CO)cc2c1c(=O)c1ccccc1n2C (racemic) | 59.8 | 47.5
10 | COc1cc(OCC(COC(C)=O)OC(C)=O)cc2c1c(=O)c1ccccc1n2C (racemic) | 40.6 | 37.8
11 | C=CCOc1cc(OC)c2c(=O)c3cc4ccccc4cc3n(C)c2c1 | 33 | 3.7
12 | COc1cc(OCC(O)CO)cc2c1c(=O)c1cc3ccccc3cc1n2C (racemic) | 79 | 65
13 | COc1cc(OCC2COC(=O)O2)cc2c1c(=O)c1ccccc1n2C (racemic) | 37.2 | 24.1
14 | COc1cc(OCC2CO2)cc2c1c(=O)c1ccccc1n2C (racemic) | 0.09 | 0.12
15 | COc1cc(OCC(O)COC(C)=O)cc2c1c(=O)c1cc3ccccc3cc1n2C (racemic) | 6.2 | 5.8
